# Reference: paper PMC4444084, “An Antioxidant Extract of the Insectivorous Plant Drosera burmannii Vahl. Alleviates Iron-Induced Oxidative Stress and Hepatic Injury in Mice” (PLoS ONE, 2015)
# “And” between values parts separate entries of the source, which are not always exact repeats. Equal values may be shown once. Marks after values point to notes of the source that are not given here.
# Tests used:
# [1] = Singlet oxygen scavenging; assay type: biochemical
# Experimental: (§1) The ROS scavenging ability of DBME was determined using multiple stable ROS radical scavenging assays, such as hydroxyl, superoxide, hypochlorous radical, singlet oxygen and hydrogen peroxide assays by standard procedures.
# [2] = Hydroxyl radical scavenging; assay type: biochemical
# Experimental: as §1
# [3] = Hydrogen peroxide scavenging; assay type: biochemical
# Experimental: as §1
# WST-1 cytotoxicity assay = assay type: cell-based, human; settings: human, WI-38 human lung fibroblast cells, WI-38 cells, WST-1
# Experimental: (§2) The human lung fibroblast (WI-38) cell line was purchased from the National Centre for Cell Science (NCCS), India. Cells were grown in DMEM supplemented with 10% (v/v) fetal bovine serum (FBS), 100 U/ml penicillin G, 50 μg/ml gentamycin sulfate, 100 μg/ml streptomycin and 2.5 μg/ml amphotericin B. The cell line was maintained in a CO2 incubator at 37°C in a humidified atmosphere containing 5% CO2. Cell proliferation and cell viability were quantified using the WST-1 Cell Proliferation Reagent, Roche diagnostics, according to previously described methods. […] Briefly, WI-38 cells (1 × 10^4 cells/well) were treated with DBME, purpurin, catechin, tannic acid, reserpine, methyl gallate or rutin at doses ranging from 0–120 μg/ml for 48 hours in 96-well culture plates. After treatment, 10 μl of the WST-1 cell proliferation reagent was added to each well followed by 2 hours of incubation at 37°C. Cell proliferation and viability were quantified by measuring the absorbance at 460 nm using a microplate ELISA reader […] EX (Thermo Electron Corporation, USA).
# WI-38 cells = test: WST-1 cytotoxicity assay; assay type: cell-based, human; settings: 48 hours; for cytotoxicity against normal cells (in words): 0-120 μg/ml; for Cytotoxicity assay IC50: WST-1
# Experimental: as §2
# Peroxynitrite scavenging = assay type: biochemical
# Experimental: The RNS scavenging activity of DBME was determined using nitric oxide and peroxynitrite radical scavenging assays.
# [4] = Hypochlorous acid scavenging; assay type: biochemical
# Experimental: as §1
# [5] = DPPH radical scavenging assay; assay type: biochemical
# Experimental: The total antioxidant capacity of DBME was evaluated by an ABTS•^+ radical cation decolorization assay in comparison to a trolox standard and 2,2-diphenyl-1-picrylhydrazyl (DPPH) radical scavenging assay. The reducing power of DBME was determined using a previously described method.
# [6] = Iron chelation assay (Fe2+-ferrozine complex formation); assay type: biochemical; settings: for Iron chelating activity IC50: Fe2+-ferrozine, HEPES pH 7.2; for in vitro iron chelation ability (in words): Fe2+-ferrozine complex
# Experimental: The Fe^2+ chelating activity of DBME, catechin, methyl gallate, purpurin, reserpine, rutin and tannic acid was evaluated according to standard methods. HEPES buffer (20 mM, pH 7.2), DBME (0–120 μg/ml) and a positive control EDTA (0–20 μg/ml) were separately added to a 12.5 μM ferrous sulfate solution, and 75 μM ferrozine was added to start the reaction. The mixture was shaken vigorously and left standing for 20 min at room temperature. Next, the absorbance was measured at 562 nm. All tests were performed six times.
# iron overloaded mice [7] = test: Serum markers (ALAT, ASAT, ALP, bilirubin) in iron overloaded mice; assay type: in vivo, Swiss albino mice; settings: D: desirox 20 mg/kg b.w. oral 21 days
# Experimental: (§3) Mice were divided into six groups of six mice each. One group was labeled as blank (B) and received normal saline. The other five groups received five intraperitoneal injections of iron-dextran at a dose of 100 mg/kg b.w. (one dose every two days). One iron-dextran group (C) was administered normal saline, and the other four groups were orally treated with either 50 mg/kg b.w. (S50), 100 mg/kg b.w. (S100), 200 mg/kg b.w. (S200) DBME or 20 mg/kg b.w. desirox (D) for 21 days beginning on the day following the first iron-dextran injection.
# (§4) After treatment, mice were fasted overnight on the 21st day and anesthetized with ethyl ether. Blood was collected by cardiac puncture. Serum from the blood samples was separated using a cooling centrifuge and stored at -80°C until analysis. The liver was washed with ice-cold saline and divided into three parts. One major portion of the liver was cut, weighed and homogenized in 10 volumes of 0.1 M phosphate buffer (pH 7.4) containing 5 mM EDTA and 0.15 M NaCl. The sample was centrifuged at 8,000 g for 30 min at 4°C. The protein concentration in the supernatant was estimated according to Lowry's method using BSA as a standard. The remaining samples were stored at -80°C until further analysis. Another portion of the liver was weighed and digested using an equivolume mixture of sulfuric acid and nitric acid for iron content analysis. A final liver sample was used for histopathological studies.
# Alanine amino transferase (ALAT), aspartate amino transferase (ASAT), and bilirubin levels were measured in serum samples using commercial kits from Merck, Mumbai, India. Serum alkaline phosphatase (ALP) was estimated using a kit supplied by Sentinel diagnostics, Italy. The serum ferritin level was measured using an enzyme-linked immunosorbent assay (Monobind Inc., USA) according to the manufacturer’s instructions.
# iron overloaded mice [8] = test: Liver antioxidants (SOD, CAT, GST, GSH) in iron overloaded mice; assay type: in vivo, Swiss albino mice; settings: D: desirox 20 mg/kg b.w. oral 21 days
# Experimental: as §3, §4
# Superoxide dismutase (SOD), catalase (CAT) activity, glutathione-S-transferase (GST) and reduced glutathione (GSH) levels were assayed according to previously reported methods.
# [9] = Superoxide anion scavenging; assay type: biochemical
# Experimental: as §1
molecule,measurement,setting,value
"O=C(O)CCCC[C@@H]1CCSS1 (racemic) [Lipoic acid, lipoic acid]",Singlet oxygen scavenging IC50,[1],46.16 ± 1.16 µg/mL
"OC[C@@H](O)[C@@H](O)[C@H](O)[C@H](O)CO [Mannitol, mannitol]",Hydroxyl radical (OH) scavenging IC50,[2],571.45 ± 20.12 µg/mL
"CC(=O)C(=O)[O-].[Na+] [Sodium pyruvate, sodium pyruvate]",Hydrogen peroxide (H2O2) scavenging IC50,[3],3240 ± 300 µg/mL
"C[C@@H]1O[C@@H](OC[C@H]2O[C@@H](Oc3c(-c4ccc(O)c(O)c4)oc4cc(O)cc(O)c4c3=O)[C@H](O)[C@@H](O)[C@@H]2O)[C@H](O)[C@H](O)[C@H]1O [Rutin, rutin]",IC50 at 48 h,WST-1 cytotoxicity assay,1230 ± 195 µg/mL
same,cytotoxicity against normal cells (in words),WI-38 cells,negligible cytotoxicity
"O=C(O)c1cc(O)c(O)c(O)c1 [Gallic acid, gallic acid]",Peroxynitrite (ONOO-) scavenging IC50,Peroxynitrite scavenging,876 ± 570 µg/mL
"O=C1O[C@H]([C@@H](O)CO)C(O)=C1O [Ascorbic acid, ascorbic acid]",Hypochlorous acid (HOCl) scavenging IC50,[4],235.96 ± 5.75 µg/mL
same,DPPH IC50,[5],5.29 ± 0.28 µg/mL
"O=C1c2ccccc2C(=O)c2c(O)c(O)cc(O)c21 [Purpurin, purpurin]",IC50 at 48 h,WST-1 cytotoxicity assay,1470 ± 291 µg/mL
same,cytotoxicity against normal cells (in words),WI-38 cells,negligible cytotoxicity
same,Iron chelating activity IC50,[6],252.37 ± 4.08 µg/mL
"COC(=O)[C@H]1[C@H]2C[C@@H]3c4[nH]c5cc(OC)ccc5c4CCN3C[C@H]2C[C@@H](OC(=O)c2cc(OC)c(OC)c(OC)c2)[C@@H]1OC [Reserpine, reserpine]",IC50 at 48 h,WST-1 cytotoxicity assay,44.8 ± 2.06 µg/mL
same,cytotoxicity against normal cells (in words),WI-38 cells,most toxic compound
same,in vitro iron chelation ability (in words),[6],failed to chelate iron
same,Iron chelating activity IC50,[6],3095.13 ± 438.00 µg/mL
"O=C(O)c1ccc(-n2nc(-c3ccccc3O)nc2-c2ccccc2O)cc1 [D, desirox]",ALAT % Change,iron overloaded mice [7]; change vs B group,52.79%
same,ALP % Change,iron overloaded mice [7]; change vs B group,84.44%
same,ASAT % Change,iron overloaded mice [7]; change vs B group,17.36%
same,Bilirubin % Change,iron overloaded mice [7]; change vs B group,10.97%
same,ALAT,iron overloaded mice [7]; iron overloaded mice,23.29 ± 1.09 ^c ^f Unit/l and 23.29 ± 1.09^cf Unit/l
same,ALP,iron overloaded mice [7]; iron overloaded mice,61.01 ± 2.44 ^c ^f Unit/l and 61.01 ± 2.44^cf Unit/l
same,ASAT,iron overloaded mice [7]; iron overloaded mice,79.35 ± 4.36 ^a ^f Unit/l and 79.35 ± 4.36^af Unit/l
same,Bilirubin,iron overloaded mice [7]; iron overloaded mice,1.68 ± 0.15 ^f mg/dl
same,CAT % Change,iron overloaded mice [8]; change vs B group,26.09%
same,GSH % Change,iron overloaded mice [8]; change vs B group,5.13%
same,GST % Change,iron overloaded mice [8]; change vs B group,35.42%
same,SOD % Change,iron overloaded mice [8]; change vs B group,15.31%
same,CAT,iron overloaded mice [8]; iron overloaded mice,16.14 ± 3.87 ^c ^f Unit/mg protein and 16.14 ± 3.87^cf Unit/mg protein
same,GSH,iron overloaded mice [8]; iron overloaded mice,0.48 ± 0.02 ^a ^f μg/mg protein and 0.48 ± 0.02^af μg/mg protein
same,GST,iron overloaded mice [8]; iron overloaded mice,3.72 ± 0.36 ^c ^f Unit/mg protein and 3.72 ± 0.36^cf Unit/mg protein
same,SOD,iron overloaded mice [8]; iron overloaded mice,0.47 ± 0.05 ^a ^f Unit/mg protein and 0.47 ± 0.05^af Unit/mg protein
"O=C(O)CN(CCN(CC(=O)O)CC(=O)O)CC(=O)O [EDTA, Ethylenediamine tetraacetic acid]",Iron chelating activity IC50,[6],1.27 ± 0.05 µg/mL
"Oc1cc(O)c2c(c1)OC(c1ccc(O)c(O)c1)C(O)C2 (single isomer, unassigned; (+)) [Catechin, (+) catechin]",Cytotoxicity assay IC50,WI-38 cells,753.56 ± 31.99 µg/mL
same,in vitro iron chelation ability (in words),[6],failed to chelate iron
same,Iron chelating activity IC50,[6],1940.22 ± 179.61 µg/mL
"O=c1c(O)c(-c2ccc(O)c(O)c2)oc2cc(O)cc(O)c12 [Quercetin, quercetin]",Superoxide anion scavenging IC50,[9],42.06 ± 1.35 µg/mL
tannic acid,Cytotoxicity assay IC50,WI-38 cells,581.03 ± 64.97 µg/mL
same,in vitro iron chelation ability (in words),[6],most effective chelator
same,Iron chelating activity IC50,[6],50.22 ± 0.85 µg/mL
"COC(=O)c1cc(O)c(O)c(O)c1 [Methyl gallate, methyl gallate]",IC50 at 48 h,WST-1 cytotoxicity assay,344 ± 31.3 µg/mL
same,Iron chelating activity IC50,[6],70.86 ± 1.20 µg/mL
